Assay results from US8614240B2, “Benzoxazole derivatives having inhibitory activity against interleukin-6, preparation method thereof, and pharmaceutical composition containing the same” (EWHA University-Industry Collaboration Foundation, priority 2010, dated 2013).
Where two headings read alike, the source gives them in different places.

How the values were obtained:
[1] = tested on: IL-6 reactive STAT3 reporter gene; assay: IL-6 reactive STAT3 reporter gene test (pSTAT3-TA-Luc6 luciferase) in HepG2 cells; type: cell-based; conditions: Homo sapiens
Experimental: A pSTAT3-TA-Luc6 construct, which comprises 8 more STAT3 DNA binding sequence copies as compared to pSTAT-3-TA-Luc and thus, enables to better reflect STAT3 reporter gene assay, was prepared. STAT3 DNA binding sequence was amplified using pSTAT3-TA-Luc plasmid (Clontech, Palo Alto, Calif.) as the template, and oligonucleotide ([…]. SEQ ID NO: 1 (containing Kpn I site)) and oligonucleotide ([…] GAAGCAACGTTC (containing Xho I site)) as forward primer and reverse primer, respectively, by means of a thermocycler. The amplified PCR product was cloned, separated, and then inserted into Kpn I/Xho I site of pSTAT3-TA-Luc plasmid.
Human hepatoma cell line, HepG2 cell, was incubated in MEM (Minimal Essential Medium, WelGENE Inc, Daegu, Korea) medium under water-saturated condition at 37° C., 5% CO2. To this medium was added 10% (v/v) fetal bovine serum, streptomycin (100 U/mL) and penicillin (100 U/mL). 6-Well cell culture plate was allowed to grow cells up to 80%, and then the specimen was pre-treated for one hour. Then, the medium was changed into 50 μL of serum-free medium, and the mixed solution of 0.1 μL pSTAT3-TA-Luc6 construct and 0.3 μL lipofectamin reagent was added to each well and then allowed to react for 3 hours to transfect cells with pSTAT3-TA-Luc6 construct. The medium was changed to a fresh medium, and the plate was incubated for 24 hours to transiently transfect cells. The transfected cells were serum-starved with 1% BSA/DMEM, and treated with the samples for one hour and then, after adding IL-6, incubated for 3 hours. The mixture was washed with PBS, shaken for one minute with addition of 50 μL of lysis buffer (promega luciferase assay system). After adding 30-100 μL of luciferase substrate (Promega luciferase assay system), the mixture was measured by a luminometer within 5 minutes.
Among others Compounds 1 and 3 as the materials having high inhibitory effect on IL-6 activity were used at various concentration to measure the degree of inhibitory effect, and the results thereof are as shown in FIGS. 2 and 3.

[2] = tested on: Respective cell lines; assay: Cytotoxicity assay (MTT); type: cell-based; conditions: 48 hours
Experimental: In testing the compounds in cell lines, if cells are killed due to a toxicity of the compounds at the treatment concentration, a significant result cannot be obtained. Therefore, the toxicity assay was conducted by treatment with the compounds as follows. Respective cell lines were maintained on 96-well cell culture plate in the medium comprising 10% FBS with 1% Penicillin G/streptomycin, and then incubated under 37° C., 5% CO2 condition. All the experiments were repeated three times. The samples were properly diluted, and then cells were treated with the diluted samples at the concentrations of 1, 3, 10, 30, 100 μg/ml. After 48 hours, 10% (v/v) 5 mg/mL 3-(4,5-dimethylthiazol-2-yl)-2,5-diphenyltetrazolium bromide (MTT; Sigma) was added to the cell culture. After 3 hours of the incubation, the medium was aspirated and washed with PBS. After adding DMSO (100 μl), the mixture was gently agitated for 5 minutes. The absorbance was measured at 570 nm by means of VERSA max microplate reader (Molecular Devices Inc.), and the average absorbance (±SE) values as obtained from three experiments were compared with t-test, a statistical significance of P<0.05. When Compounds 1 and 3 were used at the concentrations of 1, 3, 10, 30, 100 μg/ml, the survival rates of cells were 94, 76, 70, 67, 30%, respectively, by the treatment with Compound 1, and 74, 71, 65, 57, 19%, respectively, by the treatment with Compound 3. It means that at least 50% of cells survive at the concentration (for example, 30 μg/ml) of the compounds of the present invention for measuring IL-6 inhibitory activity.

[3] = tested on: IL-6 induced STAT3 phosphorylation; assay: Test for inhibitory activity against STAT3 phosphorylation induced by IL-6 (Western blot, HepG2); type: cell-based, human; conditions: HepG2, 1, 3, 10, 30, 100 ug/ml, 10 ng/ml IL-6 (FIG. 4)
Experimental: HepG2 cells were divisionally inoculated in 6-well plate in the ratio of 5×10^4 cells/well, and grown to be 80% confluent. After changing to a serum-free medium and incubating for 6 hours, cells were pre-treated with the samples for one hour. […] Then the mixture was centrifuged (13,000×g, 15 minutes) to obtain a lysate as the supernatant. Herein, HepG2 cells not treated with IL-6 and the samples were used as the control group. The concentration of proteins was quantified by means of Bio-Rad DC protein assay kit, and the protein was loaded on 10% SDS-polyacrylamide gel (SDS-PAGE) and electrophoresed at 30 mA for 2 hours. After completion of the electrophoresis, the protein on gel was transcribed into PVDF membrane (Westran® S, pore size […]) at 90V for 90 minutes, and the transcribed membrane was blocked with Tris-buffered solution (T-TBS; 50 mM Tri-HCl, pH 7.6, 150 mM NaCl, 0.2% Tween-20, 5% skim milk) at 4° C. for 12 hours, and washed five time with T-TBS. The membrane was treated with polyclonal antibodies of phospho-STAT3 (1:1000 dilutions, respectively) as the primary antibody for 2 hours. After washing five times with T-TBS, the membrane was reacted with HRP-conjugated anti-rabbit antibody (1:5000 dilutions) as the secondary antibody for one hour. After washing with T-TBS, the film was developed in the dark room by means of ECL.

[4] = tested on: IL-6 induced ERK phosphorylation; assay: Test for inhibitory activity against ERK phosphorylation induced by IL-6 (Western blot, HepG2); type: cell-based, human; conditions: HepG2, 30 μg/ml (FIG. 5)
Experimental: HepG2 cell was divisionally inoculated in 6-well plate, and then starved for 18 hours.
The starved cells were treated with the samples for one hour, and then stimulated with IL-6 or LIF (Upstate Biotechnology, USA) for 10 minutes. The specimen was treated with 5× cell lysis buffer (Promega) sometimes with vortexing under ice for 30 minutes. The cell lysate obtained as described under B in Experiment 1 (3) was dissolved in 8% SDS-PAGE gel, and transferred to the nitrocellulose membrane. This membrane was blocked with Tris-buffered solution (50 mM Tris-HCl (pH 7.4), 150 mM NaCl, 0.1% Tween 20) containing 5% non-fat dry milk at 4° C. Then, it was incubated together with an appropriate primary antibody (ERK) present in Tris-buffered solution (50 mM Tris-HCl (pH 7.4), 150 mM NaCl, 0.1% Tween 20) containing 5% non-fat dry milk, at room temperature for 1-2 hours. This membrane was washed five times with TBS buffer solution for 10 minutes, and incubated with 1:6000 diluted horseradish peroxidase-conjugated secondary antibodies for one hour. The membrane was washed 10 times with TBS buffer solution, and then mixed and incubated with the 1:1 mixture of HRP Substrate Luminol Reagent and HRP Substrate Peroxide Solution as ELC reagent (Millipore Corp. Ma USA). The chemiluminescent signals were visualized with X-ray film.

[5] = HepG2, 20 ug/ml of sample, HepG2 cells, read-out: Inhibition % of IL-6 reactive STAT3 reporter gene activity

## CCc1ccc(Nc2nc3cc(NC(=O)Cc4ccccc4)ccc3o2)cc1 [Compound 2, N-(2-(4-ethylphenylamino)benzo[d]oxazol-5-yl)-2-phenylacetamide]
other
  melting point: > 250 °C
[1]; [5]
  inhibition at 20 µg/mL: 61.7%

## CCc1ccc(Nc2nc3cc(NC(=O)c4ccc(Cl)c(Cl)c4)ccc3o2)cc1 [Compound 7, 3,4-dichloro-N-(2-(4-ethylphenylamino)-benzo[d]oxazol-5-yl)benzamide]
[1]; [5]
  inhibition at 20 µg/mL: 69.3%

## CCOc1ccccc1C(=O)Nc1ccc2oc(Nc3ccc(CC)cc3)nc2c1 [Compound 11, 2-ethoxy-N-(2-(4-ethylphenylamino)-benzo[d]oxazol-5-yl)benzamide]
other
  melting point: 181.6 to 182 °C
[1]; [5]
  inhibition at 20 µg/mL: 58%

## CCCCCCCc1ccc(C(=O)Nc2ccc3oc(Nc4ccc(CC)cc4)nc3c2)cc1 [Compound 15, N-(2-(4-ethylphenylamino)benzo[d]oxazol-5-yl)-4-heptylbenzamide]
other
  melting point: 244.8 to 246 °C
[1]; [5]
  inhibition at 20 µg/mL: 57.2%

## CCc1ccc(Nc2nc3cc(NC(=O)c4ccc(Cl)cc4)ccc3o2)cc1 [Compound 4, 4-chloro-N-(2-(4-ethylphenylamino)benzo[d]oxazol-5-yl)benzamide]
other
  melting point: > 250 °C
[1]; [5]
  inhibition at 20 µg/mL: 12.1%

## CCc1ccc(Nc2nc3cc(NC(=O)c4ccc([N+](=O)[O-])cc4Cl)ccc3o2)cc1 [Compound 5, 2-chloro-N-(2-(4-ethylphenylamino)benzo[d]oxazol-5-yl)-4-nitrobenzamide]
other
  melting point: > 250 °C
[1]; [5]
  inhibition at 20 µg/mL: 20%

## CCc1ccc(Nc2nc3cc(NC(=O)c4ccc(C(C)(C)C)cc4)ccc3o2)cc1 [Compound 12, 4-tert-butyl-N-(2-(4-ethylphenylamino)-benzo[d]oxazol-5-yl)benzamide]
[1]; [5]
  inhibition at 20 µg/mL: > 80%

## CCc1ccc(Nc2nc3cc(NC(=O)c4cc(F)cc(C(F)(F)F)c4)ccc3o2)cc1 [Compound 10, N-(2-(4-ethylphenylamino)benzo[d]oxazol-5-yl)-3-fluoro-5-(trifluoromethyl)benzamide]
other
  melting point: > 250 °C
[1]; [5]
  inhibition at 20 µg/mL: 50.2%

## CCc1ccc(Nc2nc3cc(NC(=O)c4ccccc4Nc4cccc(C(F)(F)F)c4)ccc3o2)cc1 [Compound 16, N-(2-(4-ethylphenylamino)benzo[d]oxazol-5-yl)-2-(3-(trifluoromethyl)phenylamino)benzamide]
other
  melting point: 174 to 176 °C
[1]; [5]
  inhibition at 20 µg/mL: > 80%

## CCc1ccc(Nc2nc3cc(NC(=O)c4ccc(CC)cc4)ccc3o2)cc1 [Compound 9, 4-ethyl-N-(2-(4-ethylphenylamino)benzo[d]oxazol-5-yl)benzamide]
other
  melting point: > 250 °C
[1]; [5]
  inhibition at 20 µg/mL: 63.3%

## CCc1ccc(Nc2nc3cc(N)ccc3o2)cc1 [Compound 1, N^2-(4-ethylphenyl)benzo[d]oxazole-2,5-diamine]
[2]; 1 μg/ml
  Survival rate of cells: 94%
[2]; 3 μg/ml
  Survival rate of cells: 76%
[2]; 10 μg/ml
  Survival rate of cells: 70%
[2]; 30 μg/ml
  Survival rate of cells: 67%
[2]; 100 μg/ml
  Survival rate of cells: 30%
[3]
  Inhibitory activity on IL-6 induced STAT3 phosphorylation: inhibited IL-6 expression in a concentration-dependent manner
[4]
  Influence on IL-6 induced ERK phosphorylation: did not influence on ERK phosphorylation
[1]; [5]
  inhibition at 20 µg/mL: 97%
[1]; HepG2 cells, various concentrations (FIGS. 2 and 3), read-out: IC50 of IL-6 inhibitory activity (STAT3 reporter gene)
  IC50: 18.9 µM

## CCc1ccc(Nc2nc3cc(NC(=O)c4cc([N+](=O)[O-])ccc4Cl)ccc3o2)cc1 [Compound 6, 2-chloro-N-(2-(4-ethylphenylamino)benzo[d]oxazol-5-yl)-5-nitrobenzamide]
[1]; [5]
  inhibition at 20 µg/mL: 65.6%

## CCc1ccc(Nc2nc3cc(NC(=O)c4cc(OC)c(OC)c(OC)c4)ccc3o2)cc1 [Compound 14, N-(2-(4-ethylphenylamino)benzo[d]oxazol-5-yl)-3,4,5-trimethoxybenzamide]
other
  melting point: > 250 °C
[1]; HepG2, read-out: Inhibition % of IL-6 reactive STAT3 reporter gene activity, 20 ug/ml of sample, HepG2 cells
  inhibition at 20 µg/mL: > 80%

## CCc1ccc(Nc2nc3cc(NC(=O)c4cccc(CCl)c4)ccc3o2)cc1 [Compound 8, 3-(chloromethyl)-N-(2-(4-ethylphenyl-amino)benzo[d]oxazol-5-yl)benzamide]
[1]; [5]
  inhibition at 20 µg/mL: > 80%

## CCc1ccc(Nc2nc3cc(NC(=O)c4ccc(OC)c(OC)c4)ccc3o2)cc1 [Compound 13, N-(2-(4-ethylphenylamino)benzo[d]oxazol-5-yl)-3,4-dimethoxybenzamide]
other
  melting point: > 250 °C
[1]; [5]
  inhibition at 20 µg/mL: 26.2%
